Data taken from patent US6380183B1, “Treatment of diseases involving cyst formation” (Scios, Inc., priority 1998, dated 2002).

Tests used:
[1] = system: guinea pig heart preparation; details: Ro5-4864 effects reversed by PK 11195; cited from earlier work
[2] = system: Langendorf rat heart; details: cited from earlier work
[3] = system: polycystic cpk mice; details: cited from earlier work
[4] = system: human atrial strips; details: not antagonized by PK 11195; cited from earlier work
[5] = system: isolated working rat heart; details: isolated working rat heart model; cited from earlier work
[6] = system: human ADPKD cells; test: Promega Cell titer 96 MTT proliferation assay on human ADPKD cells; assay type: cell-based
Description: In this experiment, the effect of concentrations from […] to 10^−6 M of the known PTBR agonist, Ro5-4864 on the rate of proliferation of human autosomal dominant polycystic kidnay disease (ADPKD) cells was examined.
Epithelial cells from human ADPKD kidneys have been cultured from the domes of cysts and maintained in primary culture through several passages.
The rate of cell proliferation was determined using the Promega Cell titer 96 MTT Assay method. This assay is a modification of that described by Mosmann T 1983 J Immunol Meth. 65, 55. […] The relation between cell number and O.D. was linear, and r^2 was >0.98. To determine the effect of agonists on the rate of proliferation, approximately 4000 cells were seeded into individual chambers of a 96-well plate. The cells were incubated initially in DME/F12 medium supplemented only with penicillin, streptomycin, ITS and 1% FBS. After 24 hours,.the FBS was reduced to 0.002% (ITS deleted) to arrest growth. This small amount of serum was needed to potentiate cell attachment to the plastic surface. The human ADPKD cells were then cultured for 48 hours, after adding the cAMP (a stimulator of cell proliferation) at a concentration of 100 μM. A control and forskolin group were examined as well. Preliminary studies determined that growth was sustained over this entire interval.
Thereafter the effect of a range of concentrations from 10^−12 to 10^−6 M of the known PTBR agonist, Ro5-4864 on the rate of proliferation of […] pretreated with cAMP or not treated (baseline proliferation) was examined. The results are graphically illustrated in FIG. 6. Each data set shown in FIG. 6 is mean, and was obtained from six determinations. Accordingly, the results are highly statistically significant.

CN1C(=O)CN=C(c2ccccc2)c2cc(Cl)ccc21 [diazepam]
duration of intracellular action potential and contractility [1]: less effective | contractile force ([2]; Langendorf rat heart): increased contractile force

O=C1CN=C(c2ccccc2Cl)c2cc([N+](=O)[O-])ccc2N1 [clonazepam]
duration of intracellular action potential and contractility [1]: ineffective

CC(=O)O[C@H]1C(=O)[C@@]2(C)[C@H]([C@H](OC(=O)c3ccccc3)[C@]3(O)C[C@H](OC(=O)[C@H](O)[C@@H](NC(=O)c4ccccc4)c4ccccc4)C(C)=C1C3(C)C)[C@]1(OC(C)=O)CO[C@@H]1C[C@@H]2O [taxol]
progression of PKD [3]: inhibit the progression of PKD | survival [3]: prolongs the survival

CN1C(=O)CN=C(c2ccc(Cl)cc2)c2cc(Cl)ccc21 [Ro5-4864]
depressant effect on the contraction amplitude (negative inotropic effect) [4]: 20% | duration of intracellular action potential and contractility [1]: decreased | cardiac function [5]: depress cardiac function | heart rate and left ventricular contractility ([2]; isolated perfused Langendorf rat heart): without affecting | coronary flow ([2]; isolated perfused Langendorf rat heart, effect not antagonized by PK 11195): increase coronary flow | visual observation of the cells: growth arrest versus cell killing ([6]; human ADPKD cells): arresting cell growth and not be killing the cells | basal cell proliferation ([6]; human ADPKD cells not treated with cAMP (baseline), all concentrations examined, 10^-12 to 10^-6 M, MTT O.D., six determinations): blocked | cAMP stimulated cell proliferation ([6]; human ADPKD cells pretreated with 100 μM cAMP, all concentrations examined, 10^-12 to 10^-6 M, MTT O.D., six determinations): blocked

CCC(C)N(C)C(=O)c1cc2ccccc2c(-c2ccccc2Cl)n1 (centres unmarked) [PK 11195, 1-(2-chlorophenyl)-N-methyl-N-(1-methylpropyl)-3-isoquinoline carboxamide]
cardiac function [5]: depress cardiac function
